Paper PMC8179109, “Introducing affinity and selectivity into galectin-targeting nanoparticles with fluorinated glycan ligands” (Chemical Science, 2020)

Target: T1, BiGalHexNAcP (Bifidobacterium longum, UniProt A0ACD7UTG9)
T1 construct: gene BLIJ_2251
Test: one-pot two-enzyme synthesis of disaccharide (reverse phosphorolysis)
Assay type: biochemical
Conditions: acceptor; donor galactose 1-phosphate formed in situ by BiGalK; isolated on semi-preparative scale

T1 sequence (A0ACD7UTG9 entry or part of it): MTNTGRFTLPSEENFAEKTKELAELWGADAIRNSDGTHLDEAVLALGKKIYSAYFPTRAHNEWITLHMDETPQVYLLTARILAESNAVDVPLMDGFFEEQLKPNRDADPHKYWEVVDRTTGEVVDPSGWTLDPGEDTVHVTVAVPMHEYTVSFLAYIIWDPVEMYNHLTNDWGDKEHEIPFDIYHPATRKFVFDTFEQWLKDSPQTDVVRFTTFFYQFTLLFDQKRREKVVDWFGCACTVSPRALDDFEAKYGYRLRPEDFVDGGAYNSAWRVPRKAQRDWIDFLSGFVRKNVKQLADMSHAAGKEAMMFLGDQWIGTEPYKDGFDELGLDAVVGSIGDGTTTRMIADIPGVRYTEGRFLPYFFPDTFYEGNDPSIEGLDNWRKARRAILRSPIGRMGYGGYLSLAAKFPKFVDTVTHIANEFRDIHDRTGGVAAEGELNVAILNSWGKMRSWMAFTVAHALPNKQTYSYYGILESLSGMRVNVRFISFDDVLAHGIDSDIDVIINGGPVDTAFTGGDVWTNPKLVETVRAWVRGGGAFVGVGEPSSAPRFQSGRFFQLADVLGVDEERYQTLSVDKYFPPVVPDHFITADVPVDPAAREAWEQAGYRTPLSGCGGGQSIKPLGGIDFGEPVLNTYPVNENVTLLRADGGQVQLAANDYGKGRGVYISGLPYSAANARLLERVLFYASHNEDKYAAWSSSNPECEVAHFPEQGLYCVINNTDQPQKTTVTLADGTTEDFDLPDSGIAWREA

Compound: CC(=O)N[C@H]1[C@H](OCCCN=[N+]=[N-])O[C@H](CO)[C@@H](O)[C@@H]1O[C@@H]1O[C@H](CO)[C@H](O)[C@H](O)[C@H]1O [compound 15]
- one-pot two-enzyme synthesis of disaccharide (reverse phosphorolysis): Lacto-N-biose and fluorinated derivatives were efficiently synthesized on semi-preparative scale
